From ChEMBL document CHEMBL4387741, “Optimization of novel reversible Bruton's tyrosine kinase inhibitors identified using Tethering-fragment-based screens” (Bioorg Med Chem, 2019)

Biological target: Tyrosine-protein kinase BTK (Homo sapiens, UniProt Q06187)
Assay: biochemical
Description: Reversible inhibition of recombinant full-length N-terminal 6-His-tagged human BTK expressed in baculovirus infected Sf21 insect cells using fluorescent-labeled polyGAT peptide as substrate incubated for 30 mins by TR-FRET assay

Sequence of Tyrosine-protein kinase BTK (Q06187 whole entry): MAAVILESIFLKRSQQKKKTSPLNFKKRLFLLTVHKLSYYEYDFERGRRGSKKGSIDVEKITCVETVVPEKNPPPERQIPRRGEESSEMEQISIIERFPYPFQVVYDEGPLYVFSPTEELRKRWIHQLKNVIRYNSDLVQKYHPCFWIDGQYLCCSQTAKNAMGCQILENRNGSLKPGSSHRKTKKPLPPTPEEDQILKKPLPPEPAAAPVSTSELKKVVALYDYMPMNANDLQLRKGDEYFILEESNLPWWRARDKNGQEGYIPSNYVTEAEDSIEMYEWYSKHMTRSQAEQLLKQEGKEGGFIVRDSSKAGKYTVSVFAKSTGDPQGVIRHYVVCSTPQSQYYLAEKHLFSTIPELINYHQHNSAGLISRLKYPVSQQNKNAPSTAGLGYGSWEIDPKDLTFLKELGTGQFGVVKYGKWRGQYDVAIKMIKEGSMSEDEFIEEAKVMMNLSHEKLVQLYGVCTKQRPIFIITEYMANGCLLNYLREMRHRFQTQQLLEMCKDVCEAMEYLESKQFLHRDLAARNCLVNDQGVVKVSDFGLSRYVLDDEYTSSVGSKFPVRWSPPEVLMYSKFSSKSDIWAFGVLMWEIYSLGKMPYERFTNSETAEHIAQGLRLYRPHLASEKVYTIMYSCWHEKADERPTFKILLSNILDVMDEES

Row | SMILES | IC50 [µM]
1 | O=C(Nc1cccc(C2CCCN(c3ncnc4[nH]ccc34)C2)c1)Nc1ccccc1C1CCCC1 (racemic) | 0.1
2 | O=c1c(Nc2ccccc2)c(Nc2cccc(C3CCCN(c4ncnc5[nH]ccc45)C3)c2)c1=O (stereo unspecified) | 44
3 | O=C(Nc1cccc(C2CCCN(c3ncnc4[nH]ccc34)C2)c1)Nc1ccccn1 (stereo unspecified) | 2.7
4 | O=C(Nc1cccc(C2CCCN(c3ncnc4[nH]ccc34)C2)c1)Nc1ccccc1C(F)(F)F (stereo unspecified) | 0.46
5 | O=C(NCCCCCCNc1ncnc2[nH]ccc12)Nc1ccccc1 | 11
6 | N#C/N=C(\Nc1ccccc1)Nc1cccc(C2CCCN(c3ncnc4[nH]ccc34)C2)c1 (stereo unspecified) | 68
7 | c1cc(Nc2nc3ccccc3[nH]2)cc(C2CCCN(c3ncnc4[nH]ccc34)C2)c1 (stereo unspecified) | 4.1
8 | O=C(Nc1cccc(C2CCCN(c3ncnc4[nH]ccc34)C2)c1)c1ccccc1 (stereo unspecified) | 4.9
9 | O=S(=O)(Nc1cccc(C2CCCN(c3ncnc4[nH]ccc34)C2)c1)c1ccccc1 (stereo unspecified) | 19
10 | O=C(Nc1ccccc1)Nc1cccc(CCNc2ncnc3[nH]ccc23)c1 | 8.3
11 | O=C(Nc1cccnc1)Nc1cccc(C2CCCN(c3ncnc4[nH]ccc34)C2)c1 (stereo unspecified) | 3.2
12 | O=C(Cc1ccccc1)Nc1cccc(C2CCCN(c3ncnc4[nH]ccc34)C2)c1 (stereo unspecified) | 45
13 | CC(C)(C)c1ccccc1NC(=O)Nc1cccc(C2CCCN(c3ncnc4[nH]ccc34)C2)c1 (racemic) | 0.14
14 | O=C(Nc1ccc(F)cc1)Nc1cccc(C2CCCN(c3ncnc4[nH]ccc34)C2)c1 (stereo unspecified) | 1.3
15 | CC(C)(C#N)c1ccccc1NC(=O)Nc1cccc(C2CCCN(c3ncnc4[nH]ccc34)C2)c1 (racemic) | > 10
16 | O=C(NCCCCCNc1ncnc2[nH]ccc12)Nc1ccccc1 | 16
17 | O=C(NCCc1cccc(Nc2ncnc3[nH]ccc23)c1)Nc1ccccc1 | 12
18 | O=C(Nc1cccc(C2CCCN(c3ncnc4[nH]ccc34)C2)c1)Nc1ccccc1N1CCCCC1 (racemic) | 0.55
19 | O=C(Nc1cccc(C2CCCN(c3ncnc4[nH]ccc34)C2)c1)Nc1ccccc1C1CC1 (racemic) | 0.2
20 | O=C(Nc1cccc(C2CCCN(c3ncnc4[nH]ccc34)C2)c1)Nc1ccccc1F (stereo unspecified) | 0.5
21 | O=C(NCCCC1CCCN(c2ncnc3[nH]ccc23)C1)Nc1ccccc1 (racemic) | 2
22 | O=C(NCCC#CCCNc1ncnc2[nH]ccc12)Nc1ccccc1 | 19
23 | O=C(Nc1ccc(Cl)cc1)Nc1cccc(C2CCCN(c3ncnc4[nH]ccc34)C2)c1 (stereo unspecified) | 2.3
24 | O=C(Nc1ccncc1)Nc1cccc(C2CCCN(c3ncnc4[nH]ccc34)C2)c1 (stereo unspecified) | > 10
25 | O=C(Nc1cccc(Cl)c1)Nc1cccc(C2CCCN(c3ncnc4[nH]ccc34)C2)c1 (stereo unspecified) | 1.8
26 | O=C(Nc1cccc(F)c1)Nc1cccc(C2CCCN(c3ncnc4[nH]ccc34)C2)c1 (stereo unspecified) | 1.2
